Earlier results, collected in patent US20070207107A1, “Silicone based emulsions for topical drug delivery” (priority 2006, published 2007).

Key:
[1] = result in words
[2] = drug dissolved in 98% hexamethyldisiloxane and 2% silicone gum

Row | skin penetration from silicone formulation compared with silicone-free emulsion [2] | Structure (SMILES) | skin permeability (classification) [1]
1 | – | Cn1c(=O)c2c(ncn2C)n(C)c1=O [Caffeine] | relatively high skin permeability
2 | reduced penetration | Clc1ccc(COC(Cn2ccnc2)c2ccc(Cl)cc2Cl)cc1 (stereo not shown) [econazole nitrate] | –
3 | increased the penetration | CC(C)Cc1ccc(C(C)C(=O)O)cc1 (stereo not shown) [ibuprofen] | –

Row | Structure (SMILES) | skin penetration from silicone formulation compared with silicone-free emulsion [2] | skin permeability (classification) [1]
4 | C[C@]12CCC(=O)C=C1CC[C@@H]1[C@@H]2[C@@H](O)C[C@@]2(C)[C@H]1CC[C@]2(O)C(=O)CO [hydrocortisone] | formation of a reservoir of hydrocortisone in the stratum corneum | –
